Data: US10787452B2 (Vertex Pharmaceuticals Incorporated, priority 2012, dated 2020)
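Note: compound concentration needed to lower the Cisplatin-alone IC50 by a set fold.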

What follows are molecules tested on HCT116 colorectal cancer cells (assay: Cisplatin sensitization assay (96 h cell viability MTS)). Settings: 96 h MTS, compound plus Cisplatin.
Assay type: cell-based
Procedure, shortened: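 Viability is measured with MTS reagent, added after 96 h and developed for 1 h at 37° C. Beforehand, cells receive compound and cisplatin simultaneously in a concentration matrix of 2-fold serial dilutions starting at 10 μM final.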
For CN1CC[C@@H](OC2CCN(c3c(F)cncc3NC(=O)c3c(N)nn4cc(F)cnc34)CC2)C1 [I-N-132, (R)-2-amino-6-fluoro-N-(5-fluoro-4-(4-((1-methylpyrrolidin-3-yl)oxy)piperidin-1-yl)pyridin-3-yl)pyrazolo[1,5-a]pyrimidine-3-carboxamide], the “Cisplatin Sensitization Assay” value was “+++ (Compounds with a Cisplatin sensitization value of <0.02 μM are marked with “+++.”)”. For CN1CCN(c2ccncc2NC(=O)c2c(N)nn3cc(F)cnc23)CC12CCOCC2 [I-N-133, 2-amino-6-fluoro-N-(4-(1-methyl-9-oxa-1,4-diazaspiro[5.5]undecan-4-yl)pyridin-3-yl)pyrazolo[1,5-a]pyrimidine-3-carboxamide], the “Cisplatin Sensitization Assay” value was “++ (Compounds with a Cisplatin sensitization value >0.02 μM but <0.2 μM are marked with “++.”)”. In the case of Nc1nn2cc(F)cnc2c1C(=O)Nc1cncc(F)c1N1CCN(C(=O)C23CCN(CC2)CC3)CC1 [I-N-134, 2-amino-6-fluoro-N-(5-fluoro-4-(4-(quinuclidine-4-carbonyl)piperazin-1-yl)pyridin-3-yl)pyrazolo[1,5-a]pyrimidine-3-carboxamide], the “Cisplatin Sensitization Assay” value is reported as “+ (Compounds with a Cisplatin sensitization value >0.2 μM but <5 μM are marked with “+.”)”. With Nc1nn2cc(F)cnc2c1C(=O)Nc1cncc(F)c1N1CCN2CCOC[C@H]2C1 [I-N-135, (R)-2-amino-6-fluoro-N-(5-fluoro-4-(hexahydropyrazino[2,1-c][1,4]oxazin-8(1H)-yl)pyridin-3-yl)pyrazolo[1,5-a]pyrimidine-3-carboxamide] the “Cisplatin Sensitization Assay” value was “+++ (Compounds with a Cisplatin sensitization value of <0.02 μM are marked with “+++.”)”. Nc1nn2cc(F)cnc2c1C(=O)Nc1cnccc1N1CCN2C(=O)COCC2C1 (stereo not drawn) [I-N-136, 2-amino-6-fluoro-N-(4-(4-oxohexahydropyrazino[2,1-c][1,4]oxazin-8(1H)-yl)pyridin-3-yl)pyrazolo[1,5-a]pyrimidine-3-carboxamide] was tested, and the “Cisplatin Sensitization Assay” value was “++ (Compounds with a Cisplatin sensitization value >0.02 μM but <0.2 μM are marked with “++.”)”. In the case of Nc1nn2cc(F)cnc2c1C(=O)Nc1cncc(F)c1N1CCN2CCOC[C@@H]2C1 [I-N-137, (S)-2-amino-6-fluoro-N-(5-fluoro-4-(hexahydropyrazino[2,1-c][1,4]oxazin-8(1H)-yl)pyridin-3-yl)pyrazolo[1,5-a]pyrimidine-3-carboxamide], the “Cisplatin Sensitization Assay” value is reported as “++ (Compounds with a Cisplatin sensitization value >0.02 μM but <0.2 μM are marked with “++.”)”. CN1CCN(c2c(F)cncc2NC(=O)c2c(N)nn3cc(C(C)(C)C#N)cnc23)CC1 [I-N-138, 2-amino-6-(2-cyanopropan-2-yl)-N-(5-fluoro-4-(4-methylpiperazin-1-yl)pyridin-3-yl)pyrazolo[1,5-a]pyrimidine-3-carboxamide] was tested, and the “Cisplatin Sensitization Assay” value was “++ (Compounds with a Cisplatin sensitization value >0.02 μM but <0.2 μM are marked with “++.”)”. CC(C)(O)CN1CCN(c2c(F)cncc2NC(=O)c2c(N)nn3cc(F)cnc23)CC1 [I-N-139, 2-amino-6-fluoro-N-(5-fluoro-4-(4-(2-hydroxy-2-methylpropyl)piperazin-1-yl)pyridin-3-yl)pyrazolo[1,5-a]pyrimidine-3-carboxamide] was tested, and the “Cisplatin Sensitization Assay” value was “+++ (Compounds with a Cisplatin sensitization value of <0.02 μM are marked with “+++.”)”. In the case of CN1CCN(C(=O)N2CCN(c3c(F)cncc3NC(=O)c3c(N)nn4cc(F)cnc34)CC2)CC1 [I-N-140, 2-amino-6-fluoro-N-(5-fluoro-4-(4-(4-methylpiperazine-1-carbonyl)piperazin-1-yl)pyridin-3-yl)pyrazolo[1,5-a]pyrimidine-3-carboxamide], the “Cisplatin Sensitization Assay” value is reported as “+++ (Compounds with a Cisplatin sensitization value of <0.02 μM are marked with “+++.”)”. For Nc1nn2cc(F)cnc2c1C(=O)Nc1cnccc1N1CCOCC1 [I-N-141, 2-amino-6-fluoro-N-(4-morpholinopyridin-3-yl)pyrazolo[1,5-a]pyrimidine-3-carboxamide], the “Cisplatin Sensitization Assay” value was “+++ (Compounds with a Cisplatin sensitization value of <0.02 μM are marked with “+++.”)”. For CC(C)(C#N)c1cnc2c(C(=O)Nc3cnccc3N3CCN(C4COC4)CC3)c(N)nn2c1 [I-N-142, 2-amino-6-(2-cyanopropan-2-yl)-N-(4-(4-(oxetan-3-yl)piperazin-1-yl)pyridin-3-yl)pyrazolo[1,5-a]pyrimidine-3-carboxamide], the “Cisplatin Sensitization Assay” value was “++ (Compounds with a Cisplatin sensitization value >0.02 μM but <0.2 μM are marked with “++.”)”. For CC(C#N)c1cnc2c(C(=O)Nc3cnccc3N3CCN(C4COC4)CC3)c(N)nn2c1 (stereo not drawn) [I-N-143, 2-amino-6-(1-cyanoethyl)-N-(4-(4-(oxetan-3-yl)piperazin-1-yl)pyridin-3-yl)pyrazolo[1,5-a]pyrimidine-3-carboxamide], the “Cisplatin Sensitization Assay” value was “++ (Compounds with a Cisplatin sensitization value >0.02 μM but <0.2 μM are marked with “++.”)”. CC(C)(C#N)c1cnc2c(C(=O)Nc3cncc(F)c3N3CCN(C4COC4)CC3)c(N)nn2c1 [I-N-144] was tested, and the “Cisplatin Sensitization Assay” value was “+++ (Compounds with a Cisplatin sensitization value of <0.02 μM are marked with “+++.”)”. With CN(C)S(=O)(=O)C1CCN(c2c(F)cncc2NC(=O)c2c(N)nn3cc(F)cnc23)CC1 [I-N-146, 2-amino-N-(4-(4-(N,N-dimethylsulfamoyl)piperidin-1-yl)-5-fluoropyridin-3-yl)-6-fluoropyrazolo[1,5-a]pyrimidine-3-carboxamide] the “Cisplatin Sensitization Assay” value was “+++ (Compounds with a Cisplatin sensitization value of <0.02 μM are marked with “+++.”)”. In the case of Nc1nn2cc(F)cnc2c1C(=O)Nc1cncc(F)c1N1CCC(N2CCCC2=O)CC1 [I-N-147, 2-amino-6-fluoro-N-(5-fluoro-4-(4-(2-oxopyrrolidin-1-yl)piperidin-1-yl)pyridin-3-yl)pyrazolo[1,5-a]pyrimidine-3-carboxamide], the “Cisplatin Sensitization Assay” value is reported as “+++ (Compounds with a Cisplatin sensitization value of <0.02 μM are marked with “+++.”)”. For CN1CCC(N(C)S(=O)(=O)C2CCN(c3c(F)cncc3NC(=O)c3c(N)nn4cc(F)cnc34)CC2)CC1 [I-N-148, 2-amino-6-fluoro-N-(5-fluoro-4-(4-(N-methyl-N-(1-methylpiperidin-4-yl)sulfamoyl)piperidin-1-yl)pyridin-3-yl)pyrazolo[1,5-a]pyrimidine-3-carboxamide], the “Cisplatin Sensitization Assay” value was “+++ (Compounds with a Cisplatin sensitization value of <0.02 μM are marked with “+++.”)”. Nc1nn2cc(F)cnc2c1C(=O)Nc1cncc(F)c1N1CCC(CN2CCOCC2)CC1 [I-N-149, 2-amino-6-fluoro-N-(5-fluoro-4-(4-(morpholinomethyl)piperidin-1-yl)pyridin-3-yl)pyrazolo[1,5-a]pyrimidine-3-carboxamide] was tested, and the “Cisplatin Sensitization Assay” value was “+++ (Compounds with a Cisplatin sensitization value of <0.02 μM are marked with “+++.”)”. CN1CCN(CC2CCN(c3c(F)cncc3NC(=O)c3c(N)nn4cc(F)cnc34)CC2)CC1 [I-N-150, 2-amino-6-fluoro-N-(5-fluoro-4-(4-((4-methylpiperazin-1-yl)methyl)piperidin-1-yl)pyridin-3-yl)pyrazolo[1,5-a]pyrimidine-3-carboxamide] was tested, and the “Cisplatin Sensitization Assay” value was “+++ (Compounds with a Cisplatin sensitization value of <0.02 μM are marked with “+++.”)”.
